Source: patent US20240335542A1, “NANOMATERIALS COMPRISING DISULFIDES” (Beam Therapeutics Inc., priority 2021, published 2024)

Key:
[1] = LNP hydrodynamic diameter and polydispersity index by dynamic light scattering (DLS); format: physicochemical; conditions: LNP of 47.5% ionizable lipid: 40% cholesterol: 2.5% PEG-2000 DMG: 10% DPSC, N/P 4-8
Description: (§1) LNPs were prepared with 47.5% Ionizable Lipid (e.g., a compound provided herein): 40% cholesterol: 2.5% PEG-2000 DMG; and 10% DPSC and an N/P ratio range of 4-8. LNPs were formed by microfluidic mixing of the lipid and NA solutions using a Precision Nanosystems NanoAssemblr Spark or Benchtop series Instruments, according to the manufacturers protocol. A ratio of aqueous to organic solvent of approximately 2:1 or 3:1 was maintained during mixing using differential flow rates. After mixing, LNPs were collected, diluted in phosphate buffer saline (PBS) or Tris-buffered saline (TBS) (approximately 1:1 v/v). Further buffer exchange was conducted using dialysis in PBS or TBS at 4° C. for 4 to 24 hours against a 20 kDa filter. After this initial dialysis, each individual LNP preparation was characterized via dynamic light scattering (DLS) to measure the size (e.g., diameter) and polydispersity. LNPs falling within specific diameter and polydispersity ranges were pooled, and further dialyzed against PBS or TBS at 4° C. for 1 to 4 hours against a 100 kDa dialysis cassette. After the second dialysis, LNPs were sterile filtered using 0.22 μm filter and stored at 4° C. for further use.
LNP hydrodynamic diameter and polydispersity index (PDI) were measured using high throughput dynamic light scattering (DLS) (Stunner, Unchained Labs). LNPs were diluted 1×TBS or PBS to an appropriate concentration and analyzed.

[2] = RNA encapsulation efficiency of LNPs by Ribogreen assay; format: physicochemical; conditions: LNP of 47.5% ionizable lipid: 40% cholesterol: 2.5% PEG-2000 DMG: 10% DPSC, N/P 4-8
Description: as §1
RNA concentration and encapsulation efficiency were determined by Ribogreen assay (BioTek Synergy LX plate reader).

[3] = LNP biodistribution in mice, barcode fold above input (FAI) in tissues; format: in vivo; conditions: pooled LNP IV tail vein, 4 hours post-dose, fold above input of barcode
Description: Male and female mice aged approximately 8-12 weeks were used for studies described by the present Example. Each mouse was temporarily restrained and pooled LNP was administered IV via tail vein injection in up to five animals per experiment. Age-matched mice was also used to administer vehicle (1×TBS) via tail vein injection in up to three animals per experiment. Additional routes of administration can also be conducted including intracerebral ventricular (ICV), intracisterna manga (ICM), intrathecal (IT), intramuscular (IM), nebulization, intranasal (IN), subcutaneous (SC), intraarticular, and intradermal (ID). At 4 hours post-dose, tissues including liver, spleen, bone marrow, testes, gastrocnemius, quadricep, lung, heart, kidney, and pancreas may be collected for analysis.
RNA from tissues were extracted using the Reliaprep RNA extraction kit, and libraries were prepared using the RNAseq kit, and sequenced on either a MiSeq or NextSeg500.
To screen for preferential LNP delivery to a target tissues, the relative abundance of each barcode in one or more target tissues was measured and compared to the relative abundance of each barcode to its corresponding relative input abundance to determine fold above input (FAI) for each barcode. If the FAI of a barcode in a target tissue is above a threshold or above the FAI of a different LNP in the same tissue, the LNP can be identified as preferentially delivering to the target tissue.
The FAI is the normalized relative abundance of a barcode in a selected sample as compared to its frequency in the input. The FAI of a barcode indicates how a LNP's abundance changes relative to the rest of the LNP pool. The FAI value of the barcode was calculated by normalizing the relative abundance in the barcode sequence counts in the isolated samples to its relative abundance in the administration input. […] The FAI then indicates the performance of an LNP relative to the input LNP composition.

ALAS1 target site = assay: In vivo base editing with LNP carrying adenine base editor mRNA and sgRNA, targeted deep sequencing; conditions: LNP with ABE mRNA + sgRNA, 0.15 mg/kg total RNA, tail vein, Balb/C mice, four to six days post-dose
Description: Exemplary LNP preparations were selected to determine each preparation's ability to perform base editing in a Balb/C mouse model as described herein.
Lipid nanoparticle components were dissolved in 100% ethanol at specified lipid component molar ratios. mRNA encoding an adenine base editor and a chemically-modified sgRNA was dissolved at a mass ratio of 1:1 in 50 mM citrate, pH 4.0, resulting in a concentration of NA cargo of approximately 0.1 mg/mL.
LNP preparations were formulated with molar ratios of 47.5% Ionizable Lipid: 40% Cholesterol: 2.5% PEG2000-DMG: 10% DSPC total lipid to NA mass ratio of 6 to 12. […]
A 3:1 ratio of aqueous to organic solvent was maintained during mixing using differential flow rates. […] After this initial dialysis, each individual LNP preparation was characterized via dynamic light scattering (DLS) to measure size and polydispersity. pKa of a subpopulation of LNP preparations was measured via TNS assay. […]
Age-matched mice were also used to administer vehicle (1×TBS) via tail vein injection as a control. […] Base editing was determined by performing targeted deep sequencing analysis at the ALAS1 target site using extracted genomic DNA. […] Library size and concentration was confirmed by Fragment Analyzer (Agilent) and analyzed for whole genome sequencing using an Illumina HiSeq.

| SMILES | Mean Diameter (nm) [1] [nm] | Mean PDI [1] | Mean Encapsulation Efficiency (%) [2] [%] | FAI (Liver) ([3]; liver) | FAI (Lung) ([3]; lung) | FAI (Spleen) ([3]; spleen) | base editing observed in liver (ALAS1 target site) [%] |
| --- | --- | --- | --- | --- | --- | --- | --- |
| CC/C=C\CCCCOC(CCC(=O)Oc1ccc(CC(=O)OCCC2CCN(CCSSCCN3CCC(CCOC(=O)Cc4ccc(OC(=O)CCC(OCCCC/C=C\CC)OCCCC/C=C\CC)cc4)CC3)CC2)cc1)OCCCC/C=C\CC [7-9, (((((disulfanediylbis(ethane-2,1-diyl))bis(piperidine-1,4-diyl))bis(ethane-2,1-diyl))bis(oxy))bis(2-oxoethane-2,1-diyl))bis(4,1-phenylene) bis(4,4-bis(((Z)-oct-5-en-1-yl)oxy)butanoate)] | 72.1 | 0.09 | 88.2 | – | – | – | – |
| CCCCC/C=C\C/C=C\CCCCCCCCC(CCCCCCCC/C=C\C/C=C\CCCCC)OC(=O)CCCN(C)C [MC3, (6Z,9Z,28Z,31Z)-heptatriaconta-6,9,28,31-tetraen-19-yl 4-(dimethylamino) butanoate] | – | – | – | 0.50 | 1.02 | 1.46 | – |
| CC/C=C\CCCCOC(CCCC(=O)Oc1ccc(CC(=O)OCCC2CCN(CCSSCCN3CCC(CCOC(=O)Cc4ccc(OC(=O)CCCC(OCCCC/C=C\CC)OCCCC/C=C\CC)cc4)CC3)CC2)cc1)OCCCC/C=C\CC [7-8, (((((disulfanediylbis(ethane-2,1-diyl))bis(piperidine-1,4-diyl))bis(ethane-2,1-diyl))bis(oxy))bis(2-oxoethane-2,1-diyl))bis(4,1-phenylene) bis(5,5-bis(((Z)-oct-5-en-1-yl)oxy)pentanoate)] | 74.9 | 0.08 | 87.7 | – | – | – | 13.7 |
